Assay [1] concerns P. falciparum strain 3D7 parasites. Put plainly: parasite killing assay, P. falciparum 3D7, pLDH readout. Format: cell-based, Plasmodium falciparum. To be noted: ring stage, 48 hours. On the procedure: P. falciparum strain 3D7 parasites were synchronized to the ring stage and incubated with a dilution series of compound or media control for 48 hours followed by quantification of parasitemia by Plasmodium lactate dehydrogenase assay (pLDH) assay.
P. falciparum strain 3D7 (Panels A and C) or 3D7 PfGARP KO (Panel B) parasites were synchronized to the ring stage and incubated with a dilution series of compound or media control for 48 hours followed by quantification of parasitemia by pLDH assay.
A limited structure-activity relationship (SAR) study was then conducted, evaluating 48 analog compounds having the same backbone (black in FIG. 3 inset and FIG. 4), but varying R groups (red) using P. falciparum strain 3D7 and 3D7 PfGARP KO parasites. For the SAR study, 3D7 or 3D7 PfGARP KO parasites were synchronized to the ring stage and incubated with a dilution series of compounds or media control for 48 hours followed by quantification of parasitemia by Plasmodium lactate dehydrogenase assay (pLDH) assay.^30 Each dilution was evaluated in quadruplicate. In all experiments, DMSO concentration was <0.1%.
The small molecule compounds shown in FIG. 4 were tested for their abilities to kill P. falciparum strain 3D7 parasites.

In assay [2] the test system is P. falciparum 3D7 strain parasites. The conditions noted are these: artesunate at 50 and 100 mg/kg, literature ref 36; cited from earlier work.
For assay [3], the system named is P. falciparum parasites. Nature of the assay: parasite apoptosis assays (JC-1, TUNEL, ApoStat staining). The assay is classed as cell-based, Plasmodium falciparum. On the procedure: To assess the morphological effects of compound ID #9081579, 3D7 or 3D7 PfGARP KO parasites were synchronized to the ring stage and incubated with 100 μM 9081579 or vehicle control for 48 hours. […] This induction of apoptosis is further supported by caspase activation and mitochondrial depolarization assays induced by compounds ID #9081579 and ID #9078424 (see FIG. 7).

Assay [4] addresses T1, PfGARP (aa 377-560) (Plasmodium falciparum, UniProt P13816).
T1 construct: made in house
Put plainly: 1H-15N HSQC binding signature. On the procedure: Spectra were collected on a 600 MHz Bruker spectrometer at 17° C. from samples with PfGARP (aa 377-560) alone (Red), or in complex with ID #9078424 (Blue).
Two-dimension (2D) heteronuclear single quantum coherence (HSQC) spectroscopy was used to characterize the binding of ID #9078424 to PfGARP.
Using a series of recombinant PfGARP fragments, ^1H-^15N HSQC experiments were performed using PfGARP with and without ID #9078424. These experiments confirmed predictions that PfGARP was largely an intrinsically disordered protein.

The target of assay [5] is PfGARP-A (Plasmodium falciparum, UniProt Q9U0N1). Put plainly: surface plasmon resonance (SPR) binding on BiaCore100. An excerpt: Drugs were immobilized to a CM5 sensorchip and probed with varying concentrations of full length PfGARP on a BiaCore100.
PfGARP-A, sequence (Q9U0N1 entry or part of it): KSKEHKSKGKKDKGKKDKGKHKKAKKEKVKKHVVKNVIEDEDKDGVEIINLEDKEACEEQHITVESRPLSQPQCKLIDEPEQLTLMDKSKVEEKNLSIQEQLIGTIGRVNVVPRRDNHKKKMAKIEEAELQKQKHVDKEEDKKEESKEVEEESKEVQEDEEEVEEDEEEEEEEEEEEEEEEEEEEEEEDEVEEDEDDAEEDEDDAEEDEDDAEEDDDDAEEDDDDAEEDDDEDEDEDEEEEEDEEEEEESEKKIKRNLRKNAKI
PfGARP-A was immobilized to a sensorchip and probed with varying concentrations of drug on a BiaCore100.

The subject of assay [6] is P. falciparum 3D7 strain parasites. Nature of the assay: NSG/P. falciparum humanized mouse model, 3D7. The assay is classed as in vivo, Plasmodium falciparum. The conditions noted are these: 100 mg/kg IP every 8 hours for 4 days, Pf3D7. On the procedure:
Drugs were evaluated in the NSG/P. falciparum humanized mouse model. Mice were reconstituted with human RBC, infected with P. falciparum 3D7 strain parasites and treated with drug or vehicle control (100 mg/kg dosed IP every 8 hours for 4 days). Parasitemia was monitored by microscopy. Results representative of two independent experiments.
The NSG mouse (NOD scid gamma mouse) is a brand of immunodeficient laboratory mice, which carries the strain non-obese diabetic (NOD). The efficacy of both lead compounds ID #9081579 and ID #9078424 were evaluated in the NSG/P. falciparum humanized mouse model.^32,33,34,35
Briefly, NSG mice (NOD.Cg-Prkdc^scidII2rg^tm1Wjl/SzJ; JAX Cat #005557) were reconstituted with human RBC (huRBC) by daily IP injections with 1 mL of huRBC at 50% hematocrit. On day 12, mice were infected with of 2×10^7 Pf3D7 infected huRBCs via tail vein injection. On day 15, mice were injected IP with ID #9081579 or ID #9078424 at 100 mg/kg final dose (approximately 2 mg per mouse in 5% DMSO/95% PEG400 vehicle) or vehicle alone. Mice were treated with drug or vehicle control every 8 hours for 4 days. This dose and schedule was designed to maintain plasma drug levels above 50 μM, as informed by our single dose PK study in Example 5.

This is an account of results in US12544357B2, “Compositions and methods for the treatment of Plasmodium falciparum malaria” (priority 2021, dated 2026).

Like-named read-outs stand apart in the source and are kept apart here.

T1 sequence (P13816 377-560): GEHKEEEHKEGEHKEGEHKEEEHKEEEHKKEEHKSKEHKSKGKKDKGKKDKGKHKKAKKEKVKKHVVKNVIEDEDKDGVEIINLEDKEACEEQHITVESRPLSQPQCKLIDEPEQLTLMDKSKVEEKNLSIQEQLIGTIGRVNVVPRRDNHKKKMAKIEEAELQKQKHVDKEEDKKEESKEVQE

The term IC50 denotes the midpoint of a concentration-inhibition curve. `CS(=O)(=O)N(CC(=O)N1CCCCCC1)c1ccc2c(c1)OCCO2` [ID #7627706]: the IC50 in assay [1] (read-out: IC50) was 143 µM. Still for that read-out and setting: the same measure for `Cc1cccc(NC(=O)C(C)N(c2ccc3c(c2)OCCO3)S(C)(=O)=O)c1` (stereo not shown) [ID #9083036]: 80.8 µM. Turning to `C[C@H]1[C@H](OC(=O)CCC(=O)O)O[C@@H]2O[C@@]3(C)CC[C@H]4[C@H](C)CC[C@@H]1[C@@]24OO3` [artesunate], in assay [2], the parasite clearance result was “rapid clearance”. Turning to `CS(=O)(=O)N(CC(=O)NCCCN1CCCC1)c1ccc2c(c1)OCCO2` [ID #9146302], the IC50 in assay [1] (read-out: IC50) came to 124 µM. As for `Cc1ccccc1NC(=O)C(C)N(c1ccc2c(c1)OCCO2)S(C)(=O)=O` (stereo not shown) [ID #9072806], the IC50 in assay [1] (read-out: IC50) was found to be 85.3 µM. Same read-out and setting: the figure for `Cc1cccc(C)c1NC(=O)C(C)N(c1ccc2c(c1)OCCO2)S(C)(=O)=O` (stereo not shown) [ID #9084931] is 68.5 µM. With `CC(C(=O)NC1CC2CCC1C2)N(c1ccc2c(c1)OCCO2)S(C)(=O)=O` (stereo not shown) [ID #9085023], the IC50 in assay [1] (read-out: IC50) is 46.8 µM.

Turning to `CC1CCN(C(=O)C(C)N(c2ccc3c(c2)OCCO3)S(C)(=O)=O)CC1` (stereo not shown) [ID #9084012], the IC50 in assay [1] (read-out: IC50) came to 80.2 µM. In the case of `CC(C(=O)Nc1ccccc1)N(c1ccc2c(c1)OCCO2)S(C)(=O)=O` (stereo not shown) [ID #9083000], the half-maximal inhibitory concentration (IC50) in assay [1] (read-out: IC50) was 182 µM. For `CC(C(=O)NC1CCCCCC1)N(c1ccc2c(c1)OCCO2)S(C)(=O)=O` (stereo not shown) [ID #9083885], the IC50 in assay [1] (read-out: IC50) worked out at 57.2 µM. On the same count and under the same terms, the same measure for `CC(C(=O)N1CCN(C)CC1)N(c1ccc2c(c1)OCCO2)S(C)(=O)=O` (stereo not shown) [ID #9072406]: 412 µM; for `CC(C(=O)N1CCCC1)N(c1ccc2c(c1)OCCO2)S(C)(=O)=O` (stereo not shown) [ID #9080993]: greater than 10000 µM; for `CC(C(=O)N(C)C)N(c1ccc2c(c1)OCCO2)S(C)(=O)=O` (stereo not shown) [ID #9082916]: 509 µM. On the same count and under the same terms, the figure for `COc1ccc(N(C(C)C(=O)Nc2ccc3c(c2)OCCO3)S(C)(=O)=O)cc1` (stereo not shown) [ID #7123771] is greater than 10000 µM; for `CC(C(N)=O)N(c1ccc2c(c1)OCCO2)S(C)(=O)=O` (stereo not shown) [ID #9076661] it is 132 µM; for `COc1ccccc1NC(=O)C(C)N(c1ccc2c(c1)OCCO2)S(C)(=O)=O` (stereo not shown) [ID #9084682] it is greater than 10000 µM.

For the molecule `CC(C(=O)N1CCOCC1)N(c1ccc2c(c1)OCCO2)S(C)(=O)=O` (stereo not shown) [ID #9075078], in assay [1] (read-out: IC50), the IC50 is greater than 10000 µM. As to `CC(C(=O)NC1CC1)N(c1ccc2c(c1)OCCO2)S(C)(=O)=O` (stereo not shown) [ID #9083268], the IC50 in assay [1] (read-out: IC50) came out at 387 µM. On to `COc1cccc(NC(=O)C(C)N(c2ccc3c(c2)OCCO3)S(C)(=O)=O)c1` (stereo not shown) [ID #9085101], for which the IC50 in assay [1] (read-out: IC50) was greater than 10000 µM. On the same count and under the same terms, the figure for `CC(C(=O)NC1CCCC1)N(c1ccc2c(c1)OCCO2)S(C)(=O)=O` (stereo not shown) [ID #9074663] is 235 µM; for `CN(C)CCNC(=O)CN(c1ccc2c(c1)OCCO2)S(C)(=O)=O` [ID #9134158] it is 134 µM; for `CC(C(=O)N1CCCCC1)N(c1ccc2c(c1)OCCO2)S(C)(=O)=O` (stereo not shown) [ID #9082855] it is 70.3 µM.

On to `CCOc1ccccc1NC(=O)C(C)N(c1ccc2c(c1)OCCO2)S(C)(=O)=O` (stereo not shown) [ID #9077487], for which, in assay [1] (read-out: IC50), the IC50 came to 49.6 µM. Consider `CC(C(=O)Nc1ccccc1Cl)N(c1ccc2c(c1)OCCO2)S(C)(=O)=O` (stereo not shown) [ID #9078424], for which the “parasite apoptosis (JC-1, TUNEL, ApoStat staining)” value in assay [3] is reported as “activate parasite apoptosis”. The “binding to PfGARP fragment aa 377-560” value in assay [4] is reported as “specific drug binding”. The values for the IC50 in assay [1] and in assay [1] (read-out: IC50) were 4.4 µM and 4.39 µM, respectively. The SPR kinetics result is “fast on, slow off kinetics” in assay [5] (FIG. 8 legend: drugs immobilized to CM5 sensorchip) and “fast on/off kinetics” in assay [5] (PfGARP-A immobilized to sensorchip, probed with drug). Also, the parasitemia entry in assay [6] was “no detectible parasitemia after three days of drug treatment”. As for `CC(C(=O)NC1CCCCC1)N(c1ccc2c(c1)OCCO2)S(C)(=O)=O` (stereo not shown) [ID #9083607], in assay [1] (read-out: IC50), the IC50 was 160 µM. For `CNC(=O)CN(c1ccc2c(c1)OCCO2)S(C)(=O)=O` [ID #7626390], in assay [1] (read-out: IC50), the IC50 is greater than 10000 µM. Still for that read-out and setting: the same measure for `CS(=O)(=O)N(CC(=O)N1CCOCC1)c1ccc2c(c1)OCCO2` [ID #7641147]: 355 µM; for `CS(=O)(=O)N(CC(=O)N1CCCC1)c1ccc2c(c1)OCCO2` [ID #7639273]: greater than 10000 µM.
